The source of these data is ChEMBL document CHEMBL1155732, “Anti-AIDS agents. 46. Anti-HIV activity of harman, an anti-HIV principle from Symplocos setchuensis, and its derivatives” (J Nat Prod, 2001).

The term IC50 denotes the midpoint of a concentration-inhibition curve. Read a high IC50 as lower potency. By EC50 is commonly meant the concentration needed to bring the measured effect to its halfway point.

In data set [1] the test system is H9. As to the kind of experiment: Cytotoxicity against human H9 cells. The class given is cell-based.
Data set [2] deals with Human immunodeficiency virus 1. As to the kind of experiment: Antiviral activity against HIV1 in human H9 cells assessed as inhibition of viral replication. The class given is functional, organism-based.
A short description of data set [3]: Therapeutic index, ratio of IC50 for human H9 cells to EC50 for HIV1. The class given is cell-based. Conditions: for Ratio IC50/EC50: h9; for selectivity ratio: H9 cells, read-out: Ratio IC50/EC50; call rule not given here.
The mark [4] stands for this setting: Human immunodeficiency virus 1, H9, read-out: EC50.

The compound `Cc1nccc2c1[nH]c1cc(OC(C)C)ccc12` registered an IC50 in data set [1] (Homo sapiens, H9) of 86.7 µM. The concentration for a half-maximal effect (EC50) entry in data set [2] (h9) is recorded as “Not Active”.

With `Br.COc1cc2[nH]c3c(C)nccc3c2cc1Br`, half-maximal inhibition in data set [1] (h9) (IC50) was put at 5.9 µM. Besides, the half-maximal effective concentration (EC50) in data set [2] (h9, read-out: EC50) amounted to 0.22 µM. Moreover, the Ratio IC50/EC50 in data set [3] came to 26.8.

In the case of `COc1ccc2c3ccnc(C)c3n(C)c2c1`, in data set [1] (Homo sapiens, H9), the concentration for half-maximal inhibition (IC50) was 10.1 µM. Also, in data set [2] (setting [4]), the EC50 was 1.1 µM. In data set [3], the selectivity ratio came to 9.2.

In turn, `CCn1c2cc(OC)ccc2c2ccnc(C)c21` showed an IC50 in data set [1] (Homo sapiens, H9) of 8.5 µM. The EC50 in data set [2] (setting [4]) was found to be 0.35 µM. For the same compound, in data set [3], the selectivity ratio was found to be 24.2.

`COc1ccc2c3c([nH]c2c1)C(C)N(N=O)CC3` (stereo not given) gave an IC50 in data set [1] (Homo sapiens, H9) of 56.5 µM. In addition, the half-maximal effective concentration (EC50) in data set [2] (setting [4]) was found to be 7.1 µM. The selectivity ratio in data set [3] amounted to 8.

In data set [1] (Homo sapiens, H9), `COc1cc([C@@H]2OC[C@@H]3[C@H]2CO[C@H]3c2ccc(O)c(OC)c2)ccc1O` [(+)-PINORESINOL] displayed a concentration for half-maximal inhibition (IC50) of 67 µM. For the same compound, the concentration for a half-maximal effect (EC50) result in data set [2] (h9) is “Not Active”.

Consider `CCCCn1c2cc(OC)ccc2c2ccnc(C)c21`, for which the concentration for half-maximal inhibition (IC50) in data set [1] (Homo sapiens, H9) is 7.8 µM. The EC50 in data set [2] (setting [4]) is 0.037 µM. In addition, in data set [3], the selectivity ratio was 210.

Regarding `CCCCCCCCC1NC(C(=O)O)Cc2c1[nH]c1ccccc21` (stereo not given), it took 60.4 µM to reach half-maximal inhibition in data set [1] (Homo sapiens, H9) (IC50). Further, the concentration giving a half-maximal response (EC50) result in data set [2] (h9) was “Not Active”.

In the case of `CC1=NCCc2c1[nH]c1cc(O)ccc21.Cl` [HARMALOL HYDROCHLORIDE], it took 87.1 µM to reach half-maximal inhibition in data set [1] (h9) (IC50). Moreover, the EC50 entry in data set [2] (h9) is recorded as “Not Active”.

In turn, `COc1cc([C@H]2c3cc(O)c(OC)cc3C[C@@H](CO)[C@@H]2CO)ccc1O` [ISOLARICIRESINOL] came in with an IC50 in data set [1] (Homo sapiens, H9) of more than 277 µM. Also, in data set [2] (h9), the concentration for a half-maximal effect (EC50) entry is reported as “Not Active”.

The compound `CCCCCCOc1ccc2c(c1)[nH]c1c(C)nccc12` registered an IC50 in data set [1] (Homo sapiens, H9) of 8.2 µM. Also, the EC50 entry in data set [2] (h9) was “Not Active”.

In turn, `Cc1cc(O)n2c(n1)nc1ccccc12` displayed a half-maximal inhibitory concentration (IC50) in data set [1] (Homo sapiens, H9) of 118 µM. Besides, in data set [2] (h9), the EC50 result is on record as “Not Active”.

For the compound `CCCCCCCCCCCCCCCCOc1ccc2c(c1)[nH]c1c(C)nccc12`, inhibition in data set [1] (Homo sapiens, H9) was half-maximal at 42.7 µM (IC50). In addition, in data set [2] (h9), the EC50 result is recorded as “Not Active”.

In the case of `Cc1nccc2c1[nH]c1cc(OC(=O)C34CCC(C)(C(=O)O3)C4(C)C)ccc12` (stereo not given), the midpoint of inhibition in data set [1] (Homo sapiens, H9), the IC50, lay at 58.9 µM. Besides, the EC50 result in data set [2] (h9) is recorded as “Not Active”.

`COc1ccc2c(c1)[nH]c1c(/C=C/c3ccc([N+](=O)[O-])cc3)nccc12`: 15.4 µM corresponded to half-maximal inhibition in data set [1] (Homo sapiens, H9) (IC50). In addition, in data set [2] (h9), the EC50 entry is “Not Active”.

Consider `CC1=NCCc2c1[nH]c1ccccc21`, for which inhibition in data set [1] (Homo sapiens, H9) was half-maximal at 110 µM (IC50). In data set [2] (setting [4]), the half-maximal effective concentration (EC50) was 32 µM. The Ratio IC50/EC50 in data set [3] was determined as 3.4.

On to `CCOc1ccc2c(c1)[nH]c1c(C)nccc12`, for which the midpoint of inhibition in data set [1] (Homo sapiens, H9), the IC50, lay at 25.9 µM. Also, in data set [2] (setting [4]), the 50% effective concentration (EC50) was found to be 6.5 µM. Moreover, in data set [3], the Ratio IC50/EC50 turned out to be 4.

In the case of `Br.CC1=NCCc2c1[nH]c1cc(O)ccc21`, the IC50 in data set [1] (Homo sapiens, H9) was 97.1 µM. In addition, in data set [2] (h9), the half-maximal effective concentration (EC50) result is “Not Active”.

`Cc1[nH]ccc2c1[nH]c1cc(=O)ccc12` [HARMOL] showed an IC50 in data set [1] (Homo sapiens, H9) of 108 µM. For the same compound, the 50% effective concentration (EC50) in data set [2] (setting [4]) amounted to 11.1 µM. The Ratio IC50/EC50 in data set [3] is 9.7.

`COc1ccc2c3ccn(C)c(C)c-3nc2c1` had a half-inhibitory concentration (IC50) in data set [1] (Homo sapiens, H9) of 70.9 µM. Also, the Ratio IC50/EC50 in data set [3] is 15.8.

`COc1cc(C[C@H]2COC(=O)[C@@H]2Cc2ccc(O)c(OC)c2)ccc1O` [MATAIRESINOL] returned an IC50 in data set [1] (Homo sapiens, H9) of 21.9 µM. For the same compound, the EC50 in data set [2] (setting [4]) was determined as 2 µM. Besides, the selectivity ratio in data set [3] was 11.

`COc1cc(C[C@H]2COC(=O)[C@@H]2Cc2ccc(OC(C)=O)c(OC)c2)ccc1OC(C)=O` registered an IC50 in data set [1] (Homo sapiens, H9) of 49.3 µM. The EC50 in data set [2] (setting [4]) amounted to 6.9 µM. In data set [3], the selectivity ratio is 7.1.

Take `COc1cc(C[C@H]2COC(=O)[C@@H]2Cc2ccc(O[C@@H]3O[C@H](CO)[C@@H](O)[C@H](O)[C@H]3O)c(OC)c2)ccc1O` [MATAIRESINOSIDE]: in data set [1] (Homo sapiens, H9), the IC50 was more than 192 µM. For the same compound, the concentration for a half-maximal effect (EC50) result in data set [2] (h9) is reported as “Not Active”.

As to `c1ccc2c(c1)[nH]c1cnccc12` [NORHARMANE], in data set [1] (Homo sapiens, H9), half-maximal inhibition (IC50) required 142 µM. In addition, the half-maximal effective concentration (EC50) in data set [2] (setting [4]) worked out at 44.1 µM. Also, the Ratio IC50/EC50 in data set [3] was determined as 3.2.

As for `COc1ccc2c(c1)[nH]c1c(C)[n+](C)ccc12.[I-]`, 49.6 µM corresponded to half-maximal inhibition in data set [1] (Homo sapiens, H9) (IC50). The EC50 in data set [2] (setting [4]) came to 8.6 µM. In data set [3], the Ratio IC50/EC50 came out at 5.8.

`COc1cc2[nH]c3c(C)nccc3c2cc1Br` came in with an IC50 in data set [1] (h9) of 74 µM. Also, the EC50 in data set [2] (h9, read-out: EC50) was 13.2 µM. Moreover, the Ratio IC50/EC50 in data set [3] came out at 5.6.

In the case of `COc1ccc2c(c1)[nH]c1c(C)nccc12` [HARMINE], the IC50 in data set [1] (Homo sapiens, H9) turned out to be 26.4 µM. Further, the concentration giving a half-maximal response (EC50) in data set [2] (setting [4]) came to 0.52 µM. Moreover, the Ratio IC50/EC50 in data set [3] stood at 50.8.

Take `CCCn1c2cc(OC)ccc2c2cc[n+](C)c(C)c21.[Br-]`: the IC50 in data set [1] (Homo sapiens, H9) came to 53.2 µM. In addition, the concentration giving a half-maximal response (EC50) in data set [2] (setting [4]) was determined as 23.8 µM. The Ratio IC50/EC50 in data set [3] is 2.2.

Turning to `Cc1nccc2c1[nH]c1ccccc12` [HARMAN], the concentration for half-maximal inhibition (IC50) in data set [1] (Homo sapiens, H9) is 112 µM. For the same compound, the 50% effective concentration (EC50) in data set [2] (setting [4]) turned out to be 10.7 µM. Further, the selectivity ratio in data set [3] was 10.4.

`CCCCCCCCCCOc1ccc2c(c1)[nH]c1c(C)nccc12`: in data set [1] (Homo sapiens, H9), the midpoint of inhibition, the IC50, lay at 5.9 µM. In addition, the EC50 result in data set [2] (h9) was “Not Active”.

In data set [1] (h9), `COS(=O)(=O)O.Cc1nccc2c1[nH]c1ccccc12` registered an IC50 of 77.5 µM. Also, in data set [2] (h9, read-out: EC50), the EC50 stood at 10.3 µM. In data set [3], the “Ratio IC50/EC50” value came out at 7.5.

With `CC(=O)Oc1ccc2c(c1)[nH]c1c(C)nccc12`, half-maximal inhibition in data set [1] (Homo sapiens, H9) (IC50) was put at 107 µM. The EC50 in data set [2] (setting [4]) was found to be 17.3 µM. Further, the Ratio IC50/EC50 in data set [3] stood at 6.2.

With `CCC[n+]1ccc2c([nH]c3cc(OC)ccc32)c1C.[I-]`, the half-maximal inhibitory concentration (IC50) in data set [1] (Homo sapiens, H9) came out at 55.4 µM. Also, the EC50 in data set [2] (setting [4]) came out at 9.6 µM. In addition, the Ratio IC50/EC50 in data set [3] was 5.8.
